# Data: ChEMBL document CHEMBL1201862, “PubChem BioAssay data set” (2004)
# Active and inactive are the calls of the source.
# How the values were obtained:
# [1] = target: T1, Short transient receptor potential channel 4 (Mus musculus, UniProt Q9QUQ5); experiment: block of DAMGO-driven TRPC4 calcium entry – cell-based, HEK293 TRPC4/mu-opioid, Fluo-4 calcium, dose response (AID 434942); assay type: functional;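 note: potency of inhibitors blocking the TRPC4 calcium response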
# T1 sequence (Q9QUQ5 whole entry): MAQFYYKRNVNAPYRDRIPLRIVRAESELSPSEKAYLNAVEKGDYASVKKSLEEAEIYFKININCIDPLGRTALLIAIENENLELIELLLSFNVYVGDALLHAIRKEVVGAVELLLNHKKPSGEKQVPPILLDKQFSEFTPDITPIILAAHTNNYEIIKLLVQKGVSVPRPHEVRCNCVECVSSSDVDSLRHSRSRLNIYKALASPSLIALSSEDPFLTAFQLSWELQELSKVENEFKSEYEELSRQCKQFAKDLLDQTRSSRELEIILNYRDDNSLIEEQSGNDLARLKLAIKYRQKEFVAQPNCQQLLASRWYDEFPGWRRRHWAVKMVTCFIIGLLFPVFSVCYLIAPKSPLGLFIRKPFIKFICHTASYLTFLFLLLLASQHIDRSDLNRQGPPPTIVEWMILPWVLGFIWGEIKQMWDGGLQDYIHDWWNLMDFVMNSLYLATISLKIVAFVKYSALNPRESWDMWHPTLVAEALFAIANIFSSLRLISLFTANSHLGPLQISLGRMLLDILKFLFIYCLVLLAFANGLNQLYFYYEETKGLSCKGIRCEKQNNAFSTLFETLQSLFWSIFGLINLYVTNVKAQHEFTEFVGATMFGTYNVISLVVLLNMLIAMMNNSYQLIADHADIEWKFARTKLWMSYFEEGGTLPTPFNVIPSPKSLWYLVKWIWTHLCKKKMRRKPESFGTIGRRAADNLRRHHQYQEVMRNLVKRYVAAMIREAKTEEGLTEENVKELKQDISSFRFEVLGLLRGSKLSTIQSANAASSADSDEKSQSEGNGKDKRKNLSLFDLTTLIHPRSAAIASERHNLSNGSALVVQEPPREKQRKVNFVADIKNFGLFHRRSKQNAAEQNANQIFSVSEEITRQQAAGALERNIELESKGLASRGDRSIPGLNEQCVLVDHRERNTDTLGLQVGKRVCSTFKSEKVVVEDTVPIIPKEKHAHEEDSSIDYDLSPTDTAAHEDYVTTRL
# [2] = THP-1 cell cytotoxicity, dose response, cytotoxicity control for non-replicating M. tuberculosis project (AID 489025); assay type: functional
# [3] = tested on: Streptococcus sp. 'group A'; experiment: Streptococcus pyogenes SK(-)GAS viability under kanamycin – luminescence, BacTiterGlo, confirmation, counter-screen for streptokinase expression inhibitor project, dose response (AID 1900); assay type: functional, organism-based
# [4] = Vero E6 cell cytotoxicity, dose response, cytotoxicity control for non-replicating M. tuberculosis project, secondary assay (AID 492998); assay type: functional, VeroE6; details: Vero C1008
# Streptococcus = experiment: GAS UMAA2166 growth inhibition – luminescence, BacTiterGlo, counter-screen for streptokinase expression inhibitor project, dose response (AID 1915); assay type: functional, organism-based;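 note: potency for reduction of bacterial viability or growth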
# cells = assay type: functional
# Streptokinase A = target: T2, Streptokinase A (Streptococcus pyogenes serotype M1, UniProt P10520); experiment: viability-normalized secreted streptokinase activity reduction – plasminogen activation absorbance, OD405, dose response (AID 1914); assay type: functional, Streptococcus pyogenes M1 GAS;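 note: secreted streptokinase activity via plasminogen activation per viability signal from cell pellet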
# T2 sequence (P10520 whole entry): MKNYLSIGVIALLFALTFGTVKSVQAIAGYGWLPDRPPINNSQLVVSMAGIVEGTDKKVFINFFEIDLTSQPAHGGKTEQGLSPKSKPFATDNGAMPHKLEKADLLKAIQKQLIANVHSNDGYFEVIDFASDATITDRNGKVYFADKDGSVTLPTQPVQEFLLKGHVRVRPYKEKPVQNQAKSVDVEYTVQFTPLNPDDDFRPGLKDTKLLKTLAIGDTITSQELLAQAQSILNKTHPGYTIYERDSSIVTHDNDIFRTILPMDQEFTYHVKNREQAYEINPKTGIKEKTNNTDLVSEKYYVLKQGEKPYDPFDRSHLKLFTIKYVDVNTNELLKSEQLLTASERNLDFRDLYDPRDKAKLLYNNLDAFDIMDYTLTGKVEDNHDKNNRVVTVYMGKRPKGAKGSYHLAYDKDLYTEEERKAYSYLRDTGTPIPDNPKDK
# [5] = NIH3T3 cell viability loss – ATP luminescence, mouse fibroblasts, counter-screen, dose response (AID 2010); assay type: functional, cell-based;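 note: cells exposed to compound for about 90 hours before reading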
# Beta-galactosidase = Beta-galactosidase (Escherichia coli, UniProt Q8VNN2); experiment: PubChem AID 485352; assay type: functional
# [6] = target: T3, Type-1 angiotensin II receptor (Homo sapiens, UniProt P30556); experiment: antagonism of angiotensin II type 1 receptor – cell-based, uHTS hits, selectivity assay for APJ receptor antagonist project, dose response (AID 463214); assay type: functional;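 note: antagonist potency against angiotensin II stimulated AT1 response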
# T3 sequence (P30556 whole entry): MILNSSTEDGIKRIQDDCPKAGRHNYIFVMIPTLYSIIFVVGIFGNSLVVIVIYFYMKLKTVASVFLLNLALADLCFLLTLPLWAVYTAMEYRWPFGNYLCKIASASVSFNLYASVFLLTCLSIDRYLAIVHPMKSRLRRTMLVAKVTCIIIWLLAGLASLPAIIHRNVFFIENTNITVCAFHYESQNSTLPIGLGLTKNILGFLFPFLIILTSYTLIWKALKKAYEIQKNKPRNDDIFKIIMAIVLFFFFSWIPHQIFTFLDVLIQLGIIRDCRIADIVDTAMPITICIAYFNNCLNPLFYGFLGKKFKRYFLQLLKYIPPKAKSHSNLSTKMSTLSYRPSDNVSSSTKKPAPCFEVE
# [7] = Trypanosoma cruzi growth suppression in host cells – NIH3T3 host cells, beta-gal luminescence, confirmation (AID 2044); assay type: functional, cell-based;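 note: intracellular parasites grown in NIH/3T3 mouse fibroblasts as host cells; luminescent beta-galactosidase reporter signal from transgenic T. cruzi replicating inside host cells; inhibitors lower the luminescence signal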
# INS1 = experiment: INS-1E survival protection against cytokine death – cell-based, luminescence, retest, dose response (AID 449756); assay type: functional; details: Rattus norvegicus;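 note: cell death triggered by IL-1 beta plus TNF-alpha plus IFN-gamma mixture; protective hits raise ATP signal compared with cytokine alone wells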
# [8] = target: DNA dC->dU-editing enzyme APOBEC-3G (Homo sapiens, UniProt Q9HC16); experiment: Dose Response confirmation of small molecule APOBEC3G DNA Deaminase Inhibitors via a fluorescence-based single-stranded DNA deaminase assay. [Related pubchem assays (depositor defined):AID493012, AID493028]; assay type: functional
# [9] = target: T1, Short transient receptor potential channel 4; experiment: calcium entry via TRPC4 opening agents – cell-based, HEK293 TRPC4/mu-opioid, Fluo-4 calcium, dose response (AID 434937); assay type: functional
# [10] = target: T4, High affinity choline transporter 1 (Homo sapiens, UniProt Q9GZV3); experiment: human choline transporter blockers, potency – cell-based, 5-point CRC, membrane potential dye, dose response (AID 504840); assay type: functional
# T4 sequence (Q9GZV3 whole entry): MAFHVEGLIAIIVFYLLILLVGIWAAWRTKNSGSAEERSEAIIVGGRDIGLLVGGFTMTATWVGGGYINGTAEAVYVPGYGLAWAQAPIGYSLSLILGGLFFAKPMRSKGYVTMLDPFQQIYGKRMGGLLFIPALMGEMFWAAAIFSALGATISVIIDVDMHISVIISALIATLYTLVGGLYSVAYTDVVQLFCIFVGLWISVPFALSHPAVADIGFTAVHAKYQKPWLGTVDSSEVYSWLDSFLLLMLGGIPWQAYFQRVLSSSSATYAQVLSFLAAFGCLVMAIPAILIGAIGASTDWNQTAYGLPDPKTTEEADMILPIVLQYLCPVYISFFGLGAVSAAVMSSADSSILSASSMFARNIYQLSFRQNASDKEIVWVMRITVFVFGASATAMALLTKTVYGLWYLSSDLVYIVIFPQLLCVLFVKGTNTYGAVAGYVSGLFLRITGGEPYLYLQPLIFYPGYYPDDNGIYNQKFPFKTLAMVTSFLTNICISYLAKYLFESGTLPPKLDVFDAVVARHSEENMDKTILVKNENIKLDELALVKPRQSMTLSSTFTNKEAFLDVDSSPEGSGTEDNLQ
# [11] = viability loss in Vero cells – cytotoxicity control for Vif-APOBEC3G degradation inhibitor project, dose response (AID 1117358); assay type: functional; details: Vero
# CAAX prenyl protease 2 [12] = target: T5, CAAX prenyl protease 2 (Saccharomyces cerevisiae S288c, UniProt Q03530); assay type: biochemical
# T5 sequence (Q03530 whole entry): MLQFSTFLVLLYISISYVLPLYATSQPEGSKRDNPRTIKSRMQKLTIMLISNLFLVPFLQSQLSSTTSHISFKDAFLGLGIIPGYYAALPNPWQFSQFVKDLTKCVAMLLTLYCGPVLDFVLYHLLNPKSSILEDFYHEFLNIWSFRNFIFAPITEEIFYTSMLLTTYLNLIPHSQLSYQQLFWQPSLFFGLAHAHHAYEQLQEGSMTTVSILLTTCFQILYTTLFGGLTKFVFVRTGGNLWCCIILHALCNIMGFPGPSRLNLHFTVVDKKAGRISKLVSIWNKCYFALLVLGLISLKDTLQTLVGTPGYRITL
# CAAX prenyl protease 2 [13] = target: T6, CAAX prenyl protease 2 (Homo sapiens, UniProt Q9Y256); experiment: inhibition of Ras-converting CAAX protease Rce1 – biochemical, yeast membranes, quenched-peptide fluorescence, cherry-pick, dose response (AID 588849)
# T6 sequence (Q9Y256 whole entry): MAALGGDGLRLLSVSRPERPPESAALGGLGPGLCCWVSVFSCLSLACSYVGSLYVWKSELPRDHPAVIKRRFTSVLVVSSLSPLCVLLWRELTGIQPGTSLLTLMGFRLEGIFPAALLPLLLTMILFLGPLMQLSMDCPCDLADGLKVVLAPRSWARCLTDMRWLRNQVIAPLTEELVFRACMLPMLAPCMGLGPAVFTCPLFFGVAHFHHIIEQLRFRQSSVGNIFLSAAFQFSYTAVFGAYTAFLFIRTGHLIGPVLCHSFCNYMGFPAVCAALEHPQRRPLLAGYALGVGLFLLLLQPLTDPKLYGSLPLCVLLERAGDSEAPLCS
# [14] = target: G-protein coupled receptor 55 (Homo sapiens, UniProt Q9Y2T6); experiment: selective activators of receptor GPR55 – imaging, U2OS cells, beta-arrestin-GFP redistribution, primary screen (AID 1961); assay type: functional
# [15] = target: Eukaryotic translation initiation factor 4E (Mus musculus, UniProt P63073); experiment: blockers of eIF4G binding by eIF4E – biochemical, TR-FRET, dose response (AID 855); assay type: functional;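 note: potency for disrupting eIF4E binding to eIF4GI seen as loss of FRET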
# [16] = target: T7, Heat shock factor protein 1 (Mus musculus, UniProt P38532); experiment: enhancement of HSF1-driven luciferase signal – cell-based, NIH3T3, luminescence, dose retest, confirmation (AID 435004); assay type: functional;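 note: stress induced by proteasome inhibitor MG132 added 30 min after compound; luciferase reporter driven by HSF1 response element in NIH3T3 cells; actives raise luminescence as potentiators of the MG132 stress response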
# T7 sequence (P38532 whole entry): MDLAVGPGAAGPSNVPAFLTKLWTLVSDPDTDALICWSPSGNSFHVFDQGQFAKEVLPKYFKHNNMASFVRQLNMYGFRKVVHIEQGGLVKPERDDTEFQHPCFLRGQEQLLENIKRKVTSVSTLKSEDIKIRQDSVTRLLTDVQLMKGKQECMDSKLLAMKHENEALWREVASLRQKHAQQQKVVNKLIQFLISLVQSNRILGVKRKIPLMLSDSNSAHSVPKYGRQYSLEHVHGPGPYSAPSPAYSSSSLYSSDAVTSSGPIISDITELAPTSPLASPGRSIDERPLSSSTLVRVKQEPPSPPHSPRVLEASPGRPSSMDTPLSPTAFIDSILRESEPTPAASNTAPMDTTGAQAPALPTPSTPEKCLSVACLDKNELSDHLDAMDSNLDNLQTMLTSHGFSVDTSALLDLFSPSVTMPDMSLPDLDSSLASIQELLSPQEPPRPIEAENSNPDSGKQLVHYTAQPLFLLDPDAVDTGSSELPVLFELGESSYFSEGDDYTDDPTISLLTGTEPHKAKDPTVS
# [17] = viability of uninfected HEp-2 cells – cell-based, HTS, cytotoxicity control for RSV inhibitor project, dose response (AID 2410); assay type: functional; details: human respiratory syncytial virus
# Beta-galactosidase, sequence (Q8VNN2 whole entry): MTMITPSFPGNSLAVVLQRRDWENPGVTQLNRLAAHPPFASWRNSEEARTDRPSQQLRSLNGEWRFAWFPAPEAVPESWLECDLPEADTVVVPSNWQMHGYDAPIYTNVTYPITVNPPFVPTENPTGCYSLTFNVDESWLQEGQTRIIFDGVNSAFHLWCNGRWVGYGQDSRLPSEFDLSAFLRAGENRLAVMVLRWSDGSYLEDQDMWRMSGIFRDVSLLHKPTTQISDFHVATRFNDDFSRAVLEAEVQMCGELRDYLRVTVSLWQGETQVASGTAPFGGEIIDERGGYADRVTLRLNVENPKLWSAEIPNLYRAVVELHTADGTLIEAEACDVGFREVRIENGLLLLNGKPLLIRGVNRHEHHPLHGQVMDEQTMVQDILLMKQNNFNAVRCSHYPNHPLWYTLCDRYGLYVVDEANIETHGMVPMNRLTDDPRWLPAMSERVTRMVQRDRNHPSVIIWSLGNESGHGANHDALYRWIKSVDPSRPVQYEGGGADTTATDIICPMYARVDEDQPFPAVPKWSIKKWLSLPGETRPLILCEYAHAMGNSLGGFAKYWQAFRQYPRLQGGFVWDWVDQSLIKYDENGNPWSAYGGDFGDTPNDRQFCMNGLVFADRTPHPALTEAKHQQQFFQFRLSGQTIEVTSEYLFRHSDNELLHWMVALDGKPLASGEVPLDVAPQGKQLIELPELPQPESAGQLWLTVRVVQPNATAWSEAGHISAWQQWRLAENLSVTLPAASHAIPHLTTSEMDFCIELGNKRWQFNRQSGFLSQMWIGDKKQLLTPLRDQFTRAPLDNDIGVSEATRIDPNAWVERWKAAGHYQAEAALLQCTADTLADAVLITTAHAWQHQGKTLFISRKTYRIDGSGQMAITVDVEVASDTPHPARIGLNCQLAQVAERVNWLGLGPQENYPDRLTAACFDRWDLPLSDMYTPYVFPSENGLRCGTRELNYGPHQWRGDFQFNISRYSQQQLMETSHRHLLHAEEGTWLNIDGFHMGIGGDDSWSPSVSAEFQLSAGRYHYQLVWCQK
# Eukaryotic translation initiation factor 4E, sequence (P63073 whole entry): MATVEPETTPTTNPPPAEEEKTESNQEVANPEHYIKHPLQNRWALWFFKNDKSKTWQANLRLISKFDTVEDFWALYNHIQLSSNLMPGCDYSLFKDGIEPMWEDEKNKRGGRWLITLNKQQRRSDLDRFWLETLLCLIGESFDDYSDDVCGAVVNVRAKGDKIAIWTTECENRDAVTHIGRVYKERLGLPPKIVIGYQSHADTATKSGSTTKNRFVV
# DNA dC->dU-editing enzyme APOBEC-3G, sequence (Q9HC16 whole entry): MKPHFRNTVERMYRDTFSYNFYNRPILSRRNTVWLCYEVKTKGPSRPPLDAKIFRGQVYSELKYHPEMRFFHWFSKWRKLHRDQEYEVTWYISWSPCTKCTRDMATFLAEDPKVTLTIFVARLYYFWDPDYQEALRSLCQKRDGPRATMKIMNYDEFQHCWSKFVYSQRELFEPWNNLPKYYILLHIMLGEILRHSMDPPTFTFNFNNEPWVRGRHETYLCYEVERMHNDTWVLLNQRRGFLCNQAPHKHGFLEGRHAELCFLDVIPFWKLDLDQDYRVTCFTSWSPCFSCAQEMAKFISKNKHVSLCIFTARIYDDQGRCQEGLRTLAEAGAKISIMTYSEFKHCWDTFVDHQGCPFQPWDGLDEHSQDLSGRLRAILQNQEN
# G-protein coupled receptor 55, sequence (Q9Y2T6 whole entry): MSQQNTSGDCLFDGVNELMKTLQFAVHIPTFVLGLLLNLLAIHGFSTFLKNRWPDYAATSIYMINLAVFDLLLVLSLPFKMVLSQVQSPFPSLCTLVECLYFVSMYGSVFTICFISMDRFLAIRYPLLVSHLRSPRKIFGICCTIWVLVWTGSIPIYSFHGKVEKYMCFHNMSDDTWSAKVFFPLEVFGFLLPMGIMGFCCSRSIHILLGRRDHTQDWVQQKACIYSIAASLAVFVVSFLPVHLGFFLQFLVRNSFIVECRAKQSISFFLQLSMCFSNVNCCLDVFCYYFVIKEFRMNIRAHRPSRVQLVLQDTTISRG
compound,measurement,setting,value
Cc1ccc(C(=O)Nc2nnc(C3=COCCO3)o2)cc1C,EC50,[1],0.421 µM (active)
same,CC50,[2],> 40 µM (active)
same,EC50,[3],5.17 µM (active)
same,CC50,[4],> 20 µM (active)
same,EC50,Streptococcus,15.5 µM (active)
same,IC50,cells,2.03 µM (active)
same,EC50,Streptokinase A,> 150 µM (not active)
O=C(Nc1nc(-c2ccccn2)cs1)Nc1ccc(F)cc1F,EC50,[5],8.78 µM (active)
same,EC50,Beta-galactosidase,> 40 µM (inactive)
same,IC50,[6],18.8 µM (active)
same,EC50,[3],1.16 µM (active)
same,EC50,[7],0.9 µM (active)
same,EC50,Streptococcus,2.33 µM (active)
same,AC50,INS1,3.4 µM (active)
same,IC50,[8],65.9 µM (active)
CCN1CCN(c2ccc(S(=O)(=O)N3CCOCC3)cc2NC(=O)c2ccccc2SC)CC1,EC50,[9],0.421 µM (active)
COc1cc2ccccc2cc1C(=O)NCC(c1cccs1)N(C)C (stereo not drawn),EC50,[9],0.944 µM (active)
Cc1cccc2c1NC(=O)C2=Nc1ccc(Cl)cc1,EC50,Beta-galactosidase,> 40 µM (inactive)
same,IC50,[6],27.9 µM (not active)
CN1CCN(S(=O)(=O)c2ccc(NC(=O)Nc3cccc(Cl)c3)cc2)CC1,IC50,[10],13.2 µM (active)
same,CC50,[11],> 40 µM (active)
CNS(=O)(=O)c1cccc(C(=O)OCC(=O)c2ccc(S(=O)(=O)N3CCCCC3)cc2)c1,EC50,Beta-galactosidase,> 40 µM (inactive)
same,IC50,[6],18.8 µM (active)
CCc1ccc(Nc2n[n+](-c3ccccc3)c(/C=C/c3ccccc3)s2)cc1,AC50,CAAX prenyl protease 2 [12],0.634 µM (active)
same,AC50,CAAX prenyl protease 2 [13],23.8 µM (active)
same,EC50,[14],1.59 µM (active)
NC(=O)C1CCCN(CCc2ccccc2)C1 (stereo not drawn),EC50,[9],0.06 µM (active)
CC(/C=N\NC(=O)CN1CCN(S(=O)(=O)c2ccc(C)cc2)CC1)=C\c1ccccc1,IC50,[15],> 64 µM (inactive)
same,AC50,CAAX prenyl protease 2 [12],4.3 µM (active)
same,AC50,CAAX prenyl protease 2 [13],59.3 µM (active)
CCOC(=O)C(=Cc1c[nH]c2ccc(S(=O)(=O)N(C)C)cc12)C(=O)OCC,EC50,[16],45.3 µM (active)
same,IC50,[10],15.8 µM (active)
same,CC50,[17],13.4 µM (active)
